Assay results reported in PubChem BioAssay AID2286 (Southern Research Specialized Biocontainment Screening …, 2010).
Calls of active or inactive are those of the source.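 How the source made its calls: active means minimum cell viability of 80% or lower across the dose range, counted as toxic; inactive means minimum cell viability above 80%.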

Assay: MAGI-CCR5 and HeLa-R5-16 cytotoxicity, dose response, cytotoxicity control for HIV-1 fusion inhibitor project, cell-based, MAGI and MAGI-HeLa co-culture (AID 2286);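 further: cells exposed to compound for at least 64 h before ATP readout; 100% = median of DMSO vehicle wells with no ATP signal meaning 0%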
Conditions: MAGI-CCR5 cells viability, CellTiter-Glo ATP luminescence; for minimum viability: measured here: MAGI minimum viability across doses
[1] = MAGI-HeLa co-culture viability, at 50 µM, stronger effect = lower value
[2] = at 12.5 µM, stronger effect = lower value
[3] = at 3.13 µM, stronger effect = lower value
[4] = at 6.25 µM, stronger effect = lower value
[5] = at 1.56 µM, stronger effect = lower value
[6] = at 0.39 µM, stronger effect = lower value

| Compound | viability [1] | viability (at 50 µM (top of the series)) | minimum viability (at 50 µM, stronger effect = lower value) | also measured |
| --- | --- | --- | --- | --- |
| CCOc1cc(/C=C2/C(=N)N3C(=NC2=O)SN=C3S(=O)(=O)C(C)C)ccc1OC(=O)c1ccco1 | 103% | 91.5% (inactive) |  | minimum viability [2]: 86.8% |
| O=C1N/C(=N\S(=O)(=O)c2ccccc2)S/C1=C\c1cc([N+](=O)[O-])ccc1O | 107% | 93.8% (inactive) |  | minimum viability [2]: 88.1% |
| COc1cc(/C=C2\C(=N)N3N=C(S(C)(=O)=O)SC3=NC2=O)cc(OC)c1OCCOc1cccc(C)c1 | 120% | 82.5% (inactive) | 82.5% |  |
| COc1cccc(C2C3=C(N=c4s/c(=C\c5ccc(OCC(=O)O)cc5)c(=O)n42)c2ccccc2CC3)c1 (centres undefined) | 103% | 90.2% (inactive) |  | minimum viability [2]: 85% |
| COc1ccccc1OCCOc1ccc(/C=C2\C(=N)N3N=C(S(C)(=O)=O)SC3=NC2=O)cc1 | 98.1% | 89.2% (inactive) | 89.2% |  |
| O=C(O)CSc1cc(C(=O)c2ccccc2O)cn2c(=O)c3c4c(sc3nc12)CCCC4 | 114% | 93.2% (inactive) |  | minimum viability [2]: 92.1% |
| Cc1ccc(-c2cc(C(=O)Nc3ccc(S(=O)(=O)Nc4onc(C)c4C)cc3)c3ccccc3n2)cc1 | 89.9% | 98.7% (inactive) |  | minimum viability [3]: 86% |
| N#Cc1c(-c2ccccc2)nc(SCc2ccc(Cl)cc2)[nH]c1=O | 113% | 86.1% (inactive) | 86.1% |  |
| CCCCCc1c2c(cc(O)c1C(=O)O)OC(=O)c1c(cc(OC)cc1C(=O)CCCC)O2 | 82% | 84.4% (inactive) | 84.4% |  |
| Cc1cc(N2C(=O)C(O)=C(C(=O)c3cc4ccccc4o3)C2c2cccc(Br)c2)no1 (centres undefined) | 137% | 87.1% (inactive) |  | minimum viability (at 25 µM, stronger effect = lower value): 86.4% |
| O=C1/C(=C2\C(=O)N(Cc3ccc(F)cc3)c3ccccc32)SC(=S)N1CCS(=O)(=O)O | 114% | 99.5% (inactive) | 99.5% |  |
| Cc1ccc(S(=O)(=O)Oc2ccc(/C=C3/C(=N)N4C(=NC3=O)SN=C4S(C)(=O)=O)cc2)cc1 | 104% |  | 78.9% |  |
| O=C(O)c1ccc(/C=N/NC(=O)c2ccc(CN3c4cccc5cccc(c45)S3(=O)=O)cc2)cc1 | 93.3% | 85% (inactive) |  | minimum viability [4]: 83.3% |
| COc1cc(/C=C2\C(=N)N3N=C(S(C)(=O)=O)SC3=NC2=O)cc(OC)c1OCCOc1ccccc1C | 124% | 106% (inactive) |  | minimum viability [2]: 102% |
| Cc1ccc(-n2cccc2/C=C2/C(=N)N3C(=NC2=O)SN=C3S(C)(=O)=O)cc1Cl | 96.7% |  | 77.3% |  |
| O=c1/c(=C\c2cc([N+](=O)[O-])cc([N+](=O)[O-])c2O)sc2nc3ccccc3n12 | 115% | 104% (inactive) |  | minimum viability [4]: 97.5% |
| N=C1/C(=C/c2ccc(-c3cccc(C(=O)O)c3)o2)C(=O)N=C2SC=C(c3ccccc3)N12 | 104% | 85.3% (inactive) | 85.3% |  |
| O=C(O)c1cccc2c(-c3ccccc3)c(-c3ccccc3)[nH]c12 | 128% | 93.1% (inactive) | 93.1% |  |
| N#Cc1c(SCC(=O)Nc2nc3ccc(Br)cc3s2)sc2c(O)cc(=O)[nH]c12 | 81.1% | 83.3% (inactive) | 83.3% |  |
| CCOc1cc(/C=N/Nc2cccc(C(=O)O)c2)ccc1OC(=O)c1ccccc1 | 110% | 95.7% (inactive) |  | minimum viability [3]: 93.3% |
| COc1ccc(-c2nn(-c3ccccc3)cc2/C=C\C(=O)Nc2ccc(C(=O)O)cc2)cc1 | 93.2% |  | 73% |  |
| CCC(Sc1nc2ccsc2c(=O)n1Cc1ccc(C(=O)O)cc1)C(=O)Nc1ccc(C)c(Cl)c1 (centres undefined) | 98% |  |  | viability (at 25 µM (top of the series)): 93.6% (inactive); minimum viability [3]: 86.7% |
| NC(=O)Cn1cc(C=C2C(=O)NC(=O)NC2=O)c2ccccc21 | 99.6% | 91.7% (inactive) | 91.7% |  |
| O=C(O)c1ccc(-c2ccc(/C=C3\NC(=O)N(Cc4ccc(Cl)cc4)C3=O)o2)cc1Cl | 102% | 107% (inactive) |  | minimum viability [3]: 98.2% |
| COc1ccc(N=C2S/C(=C\c3ccc(OC(C)C(=O)O)c(OC)c3)C(=O)N2CCc2c[nH]c3ccccc23)cc1 (centres undefined) | 148% |  | 70.5% |  |
| O=C(O)c1ccccc1-c1ccccc1C(=O)Nc1ccc(-c2nc3cc(Cl)ccc3o2)cc1 | 80.5% |  | 56.8% |  |

| Compound | viability [1] | viability (at 50 µM (top of the series)) | minimum viability (at 50 µM, stronger effect = lower value) | also measured |
| --- | --- | --- | --- | --- |
| CN1C(=O)/C(=C/c2ccc(C(=O)Nc3ccc(O)cc3C(=O)O)cc2)SC1=S | 104% | 91% (inactive) |  | minimum viability [2]: 87.9% |
| O=C(Nc1ccc(Br)cc1C(=O)O)c1ccc2c(c1)C(=O)N(Cc1ccccc1)C2=O | 101% | 105% (inactive) |  | minimum viability [5]: 82.6% |
| COc1ccc(C(=O)Nc2ccc(/C(C)=N/NC(=O)c3ccncc3)cc2)cc1 | 121% | 88.5% (inactive) | 88.5% |  |
| Oc1c(Br)cc(Br)c(/C=N/n2c(-c3ccccc3)n[nH]c2=S)c1Br | 99.3% | 90.8% (inactive) | 90.8% |  |
| O=C(O)c1[nH]c2ccccc2c1C(c1cc(Br)ccc1O)c1c(C(=O)O)[nH]c2ccccc12 | 82% | 85.4% (inactive) | 85.4% |  |
| CC1=C(C#N)C(=O)NC(=O)/C1=C\c1ccc(-c2cc(C)c(C)cc2[N+](=O)[O-])o1 | 107% | 86.5% (inactive) |  | minimum viability [2]: 83.3% |
| O=C1NC(=S)N(c2ccc(F)cc2)C(=O)/C1=C/c1ccco1 | 122% | 131% (inactive) |  | minimum viability [5]: 105% |
| NS(=O)(=O)c1cc(C(=O)NC2CCSc3ccccc32)ccc1Cl (centres undefined) | 103% | 84.3% (inactive) | 84.3% |  |
| O=C(CCN1C(=O)/C(=C/c2cccs2)SC1=S)Nc1ccc(C(=O)O)c(O)c1 | 104% |  | 66% |  |
| COc1ccc(N=C2S/C(=C\c3ccc(OCC(=O)O)cc3)C(=O)N2CCc2c[nH]c3ccccc23)cc1 | 173% | 93.7% (inactive) |  | minimum viability (at 25 µM, stronger effect = lower value): 90.8% |
| Cc1cccc(S(=O)(=O)Nc2nc3ccccc3nc2Nc2cccc(C(=O)O)c2)c1 | 100% | 88.6% (inactive) | 88.6% |  |
| Cc1cc(/C=C2\C(=N)N3N=C(S(C)(=O)=O)SC3=NC2=O)c(C)n1Cc1ccccc1 | 116% | 110% (inactive) |  | minimum viability (at 25 µM, stronger effect = lower value): 106% |
| CCCCCNC(=O)c1ccc2c(=O)[nH]c3c(C(=O)NCC4CCCO4)sc(=S)n3c2c1 (centres undefined) | 105% |  |  | minimum viability (at 25 µM, stronger effect = lower value): 69.3% |
| O=C1N=c2ccc(Br)cc2=C1c1sc(=S)n(NS(=O)(=O)c2ccccc2)c1O | 89.2% | 102% (inactive) |  | minimum viability [3]: 98.5% |
| CC1=C(C(=O)Nc2ccccc2)C(c2ccc(Cl)cc2)n2c(s/c(=C/c3cccc(OCC(=O)O)c3)c2=O)=N1 (centres undefined) | 127% | 114% (inactive) |  | minimum viability [3]: 104% |
| O=C1NN(c2ccc(Cl)c(Cl)c2)C(=O)/C1=C/c1cccc(OC(=O)c2cccs2)c1 | 111% | 90.3% (inactive) |  | minimum viability (at 25 µM, stronger effect = lower value): 86.1% |
| Cc1ccc(NS(=O)(=O)c2ccc(N/N=C/c3ccccc3OCC(=O)O)c([N+](=O)[O-])c2)c(C)c1 | 101% | 108% (inactive) |  | minimum viability [6]: 88.5% |
| COc1ccc(-c2cc(-c3ccc(Cl)cc3)c(C#N)c(SCC(=O)O)n2)cc1 | 96.4% | 82.1% (inactive) | 82.1% |  |
| CC(C)(C)CC(C)(C)c1ccc(OCC(=O)N/N=C/c2ccc(S(=O)(=O)O)o2)cc1 | 104% | 87.8% (inactive) |  | minimum viability [2]: 81.1% |
| CCOc1cc(/C=C2\SC(=S)N(C(C(=O)O)c3ccccc3)C2=O)ccc1O (centres undefined) | 90.8% | 96.9% (inactive) |  | minimum viability [3]: 85.8% |
| COc1cc(/C=C2\S/C(=N/S(=O)(=O)c3ccc(C)cc3)NC2=O)c([N+](=O)[O-])cc1OC | 98.5% | 98.6% (inactive) | 98.6% |  |
| O=C(NCc1ccccc1)c1ccc2c(=O)[nH]c3c(C(=O)NCC4CCCO4)sc(=S)n3c2c1 (centres undefined) | 106% | 86.3% (inactive) | 86.3% |  |
| CC(/C=C1\SC(=S)N(c2ccc(C(=O)O)cc2)C1=O)=C\c1ccccc1 | 88% | 99.7% (inactive) |  | minimum viability [6]: 96.6% |
| CC(C)c1ccc(OCC(=O)Nc2cccc(C(=O)Nc3ccccc3C(=O)O)c2)cc1 | 96.4% | 84% (inactive) | 84% |  |
| CS(=O)(=O)C1=NSC2=NC(=O)/C(=C\c3ccc(OC(=O)c4ccco4)c(Br)c3)C(=N)N21 | 106% | 94.8% (inactive) | 94.8% |  |
| Cc1ccc(-c2nn(-c3ccccc3)cc2/C=C2\SC(=S)N(CC(=O)O)C2=O)cc1 | 92.3% | 81.7% (inactive) |  | minimum viability (at 25 µM, stronger effect = lower value): 80.9% |
